We go through ten compounds from patent US9145419B2, “Imidazopyridazinyl compounds” (Bristol-Myers Squibb Company, priority 2010, dated 2015).

SMILES strings stand for the structures.

Human CYP17, sequence (P05093 whole entry): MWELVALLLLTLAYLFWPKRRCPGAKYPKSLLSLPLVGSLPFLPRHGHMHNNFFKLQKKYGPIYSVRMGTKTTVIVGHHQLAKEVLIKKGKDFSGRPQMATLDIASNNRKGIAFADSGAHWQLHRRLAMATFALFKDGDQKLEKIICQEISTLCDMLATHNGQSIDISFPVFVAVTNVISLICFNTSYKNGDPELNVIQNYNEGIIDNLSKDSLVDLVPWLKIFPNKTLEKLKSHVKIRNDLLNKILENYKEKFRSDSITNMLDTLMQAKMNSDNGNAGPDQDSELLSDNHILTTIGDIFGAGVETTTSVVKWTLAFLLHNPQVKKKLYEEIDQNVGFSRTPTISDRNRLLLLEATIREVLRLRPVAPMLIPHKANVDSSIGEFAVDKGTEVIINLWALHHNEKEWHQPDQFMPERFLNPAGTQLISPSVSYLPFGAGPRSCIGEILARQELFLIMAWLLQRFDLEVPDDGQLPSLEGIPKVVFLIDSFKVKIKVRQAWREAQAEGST

The subject of the first experiment is testosterone levels. The experiment in a line: 1-Day Cyno PK/PD study. The format is in vivo. Particulars: cynomolgus monkeys, single oral dose 3 mg/Kg in 80% PEG-400/water, plasma, over 24 hour period. The method, then: 1-Day Cyno PK/PD Study Protocol
Animals: All procedures involving animals and their care were conducted in conformity with the guidelines that are in compliance with the Bristol-Myers Squibb Institutional Animal Care and Use Committee. Fully mature male cynomolgus monkeys (>4 yrs of age; 5-6 kg) were from an in-house colony. All the monkeys used had chronically implanted femoral vein access ports. For oral studies, all animals were fasted overnight prior to dosing and were fed 4 hr after dosing. All animals had free access to water and were conscious throughout the study.
Drug: For all oral pharmacokinetic studies in cynomolgus monkeys, the tested compound was formulated in polyethylene glycol (PEG 400): water (80:20, v:v) at concentrations of 1-5 mg/mL. […]
Sampling: Blood samples were collected from the femoral port, at 15, 30, and 45 min, and 1, 2, 4, 6, 8, 12, 24, 30, and 48 hr after oral administration. […] The plasma fraction was immediately separated by centrifugation (14,000 rpm, 10 min, 4° C.), frozen on dry ice, and stored at −20° C. until the samples were analyzed.
Analysis of Tested Compound: Plasma samples were thawed and treated with two volumes of acetonitrile containing internal standard. After centrifugation to remove precipitated proteins, an aliquot of supernatant was analyzed by LC/MS/MS. […]
`Cc1ccncc1-c1ccnn2c(-c3ccc(F)cc3)cnc12` [Example 7, 3-(4-fluorophenyl)-8-(4-methylpyridin-3-yl)imidazo[1,2-b]pyridazine] yielded a testosterone levels of about 15 ng/dL.

For a further experiment, the target named is Human CYP17 (Homo sapiens (Human), UniProt P05093). Briefly: CYP17 Total SPA assay. In kind it is biochemical. The note with it: microsomes from HEK2 cells stably transfected with CYP17; 3H-Pregnenolone 1 uM, NADPH 2 mM. As for the experimental part:
The assays were performed in U-bottom 384-well optiplates. The final assay volume was 15 μl prepared from 7.5 μl additions of microsomes (prepared as a high-speed pellet from homogenized HEK2 cells stably transfected with CYP17), substrates (3H-Pregnenolone and NADPH) and test compounds in assay buffer (50 mM Potassium phosphate pH 7.2, 10% glycerol). The reaction was initiated by the combination of the microsomes and substrates in wells containing compound. The reaction was incubated at room temperature for 45 minutes and terminated by adding 7.5 μl of 0.2N HCl to each well. Following an incubation period of 10 minutes, anti-DHEA-coated SPA beads were added to the terminated reaction. The plate was sealed and incubated overnight with shaking at 4° C. The beads were allowed to settle in the plate for 1 hour and the plate read on a TOPCOUNT® (Perkin-Elmer) plate reader.
Inhibition data were calculated by comparison to no enzyme control reactions for 100% inhibition and vehicle-only reactions for 0% inhibition. The final concentration of reagents in the assays are NADPH, 2 mM; 3H-Pregnenolone, 1 uM; microsomes, 1.25 ug/ml; Anti-DHEA-SPA beads (0.125 mg/well) in 0.5% Triton X-100 and DMSO, 0.05%. Dose response curves were generated to determine the concentration required inhibiting 50% of enzyme activity (IC50). Compounds were dissolved at 10 mM in dimethylsulfoxide (DMSO) and evaluated at eleven concentrations, each in duplicate. IC50 values were derived by non-linear regression analysis.
Regarding `Cc1ccncc1-c1ccnn2c(-c3cccs3)cnc12` [Example 35, 8-(4-methylpyridin-3-yl)-3-(thiophen-2-yl)imidazo[1,2-b]pyridazine], the IC50 (as a rule, the point on the concentration scale where inhibition reaches its midpoint) was 9 nM. Consider `Cc1ccncc1-c1ccnn2c(-c3cc(Cl)cc(Cl)c3)cnc12` [Example 34, 3-(3,5-dichlorophenyl)-8-(4-methylpyridin-3-yl)imidazo[1,2-b]pyridazine], for which the IC50 came out at 664 nM. On the same count and under the same terms, in the case of `Fc1ccc(-c2cnc3c(-c4cccnc4)ccnn23)cc1` [Example 26, 3-(4-fluorophenyl)-8-(pyridin-3-yl)imidazo[1,2-b]pyridazine] it was 524 nM; in that of `Cc1ccncc1-c1ccnn2c(-c3ccccc3)cnc12` [Example 1, 8-(4-Methylpyridin-3-yl)-3-phenylimidazo[1,2-b]pyridazine], 41 nM. On to `COc1ccccc1-c1cnc2c(-c3cnccc3C)ccnn12` [Example 3, 3-(2-Methoxyphenyl)-8-(4-methylpyridin-3-yl)imidazo[1,2-b]pyridazine], for which the IC50 was determined as 16 nM. On the same count and under the same terms, with `Cc1cccc(-c2cnc3c(-c4cnccc4C)ccnn23)c1` [Example 9, 8-(4-methylpyridin-3-yl)-3-m-tolylimidazo[1,2-b]pyridazine] the figure was 120 nM. Same read-out and setting: in the case of `Cc1cc(C)cc(-c2cnc3c(-c4cnccc4C)ccnn23)c1` [Example 38, 3-(3,5-dimethylphenyl)-8-(4-methylpyridin-3-yl)imidazo[1,2-b]pyridazine] it was 279 nM; in that of `Cc1ccncc1-c1ccnn2c(-c3ccc(F)cc3)cnc12` [Example 7, 3-(4-fluorophenyl)-8-(4-methylpyridin-3-yl)imidazo[1,2-b]pyridazine], 56 nM; in that of `Cc1ccncc1-c1ccnn2c(-c3cccc(Cl)c3)cnc12` [Example 11, 3-(3-chlorophenyl)-8-(4-methylpyridin-3-yl)imidazo[1,2-b]pyridazine], 97 nM. On to `Cc1ccncc1-c1ccnn2c(-c3cccc(C(F)(F)F)c3)cnc12` [Example 37, 8-(4-methylpyridin-3-yl)-3-(3-(trifluoromethyl)phenyl)imidazo[1,2-b]pyridazine], for which the IC50 stood at 129 nM.
